Laboratory results: US12329801B2, “Regenerative polypeptides and uses thereof” (JUVENA THERAPEUTICS, INC., priority 2021, dated 2025)

How the values were obtained:
human myoblast cells = experiment: Differentiation of human myoblast cells (MyHC immunostaining, percentage area); format: cell-based; settings: Fc4 fusions, 96 hours with daily media change, concentration not printed (FIG. 1B)
Protocol: FIG. 1A: The suspension CHO cells were transiently transfected with the IGF2-hFcm encoding plasmid. IGF2-hFcm was affinity-purified by Protein A membrane column. The purified IGF2-hFcm was added into the culture of human myoblast cells for 96 hours. Myosin heavy chain (MyHC) was immunostained and imaged by a fluorescence microscope.
FIG. 1B: The suspension CHO cells were transiently transfected with the IGF2-LhFc4 encoding plasmid. IGF2-LhFc4 was affinity-purified by Protein A membrane column. The purified IGF2-LhFc4 was added into the culture of human myoblast cells for 96 hours with daily media change. Myosin heavy chain (MyHC) was immunostained and imaged by a fluorescence microscope.
FIG. 2A: The suspension CHO cells were transiently transfected with the HSA-L-IGF2R61A encoding plasmid. HSA-L-IGF2R61A was affinity-purified by Protein A membrane column. […] Myosin heavy chain (MyHC) was immunostained and imaged by a fluorescence microscope.
Suspension CHO cells were transiently transfected with the IGF2-hFcm encoding plasmid. […] After quantification of the stained MyHC, the percentage area of MyHC was calculated as the percent of pixels within the field that are illuminated above background in the stained channel. […] Significance was determined by a p-value less than 0.05 by the one-way ANOVA Tukey Honest Significant Difference test.

[1] = Murine pharmacokinetics, intravenous, ELISA, non-compartment analysis; format: in vivo, mice; settings: mice
Protocol: Murine pharmacokinetics (PK) represents the absorption, distribution, metabolism, and elimination of drugs from the body. The pharmacokinetic profile of the therapeutic polypeptides were determined in mice (10-12 weeks old). Mice were fed ad libitum and housed under controlled conditions of lighting (12-hour light/12-hour dark) and temperature (22-24° C.). Mice were allowed to acclimate for 3 days prior to the initiation of the experiment. Intravenous (IV) injection in 10-12 weeks old mice. Engineered mitogenic polypeptides concentrations in the samples were measured by ELISA. Various pharmacokinetics will be calculated as well as the absorption/elimination dynamics following different routes of administration.

[2] = system: healthy human muscle precursors from person; experiment: In vitro myogenesis assay, healthy human muscle precursors; format: cell-based
Protocol: (§1) Human muscle progenitor cells (early passage myoblasts) were cultured and expanded in growth medium: Ham's F-10 (Gibco), 20% Bovine Growth Serum (Hyclone), 5 ng/mL FGF2 and 1% penicillin-streptomycin on Matrigel coated plates (1:300 matrigel: PBS), at 37° C. and 5% CO2. For experimental conditions, cells were plated at 40,000 cells/well on Matrigel coated 8-well chamber slides in 250-500 μL medium per well (1:100 matrigel: PBS) in human fusion medium: DMEM (Gibco)+2% horse serum (Hyclone). One hour after plating, human myoblasts were treated with 50% respective media: […] myoblasts were cultured for 24 hours in the above conditions, at 37° C. in 10% CO2 incubator. BrdU (300 uM) in DMSO was added for 2 hours prior to fixation with cold 70% ethanol and stored at 4° C. until staining.
(§2) Following permeabilization in PBS+0.25% t-Octylphenoxypolyethoxyethanol (Triton™ X-100), antigen retrieval was performed. Primary staining was performed with primary antibodies including: a species-specific monoclonal antibody for mouse anti-embryonic Myosin Heavy Chain (eMyHC, hybridoma clone 1.652, Developmental Studies Hybridoma Bank) and Rat-anti-BrdU (Abcam Inc. ab6326). […]

[3] = system: human DM1 muscle precursors from person; experiment: In vitro myogenesis assay, human DM1 muscle precursors; format: cell-based; settings: across a range of test article concentrations
Protocol: as §1, §2

[4] = system: female C57/BL6 (NIA) mice (20 months of age); experiment: Acute injury model (cardiotoxin in tibialis anterior); format: in vivo; settings: IM 0.4 ug/20 μL every other day, vs vehicle (HSA)
Protocol: The acute injury model of Example 18 was used. […] female C57/BL6 (NIA) mice (20 months of age) were injected intramuscularly (IM) in each tibialis anterior with cardiotoxin at day one (10 ug/20 μL) and from day two the mice were given IM injections every other day with 0.4 ug/20 μL of 6HIS-HSA-IGF2R61A (SEQ ID NO: 34) or vehicle (0.4 ug/20 μL of HSA).

DM1 human myoblast = experiment: Myogenic gene expression fold change in DM1 human myoblast; format: cell-based; settings: 48 h; BMP7 50 ng/mL, Butyrate 100 nM, IGF2 200 ng/mL
Protocol: Myoblasts were cultured 48 h in the presence of factors (BMP7 50 ng/mL, Butyrate 100 nM, IGF2 200 ng/mL).
Myoblasts were cultured 96 h in the presence of factors (IGF2 200 ng/ml). […] Myoblasts were cultured 48 h in the presence of factors (IGF2 200 ng/mL).
IGF2 was tested individually for its ability to promote proliferation and/or fusion of human muscle progenitor cells from an individual with myotonic dystrophy type 1 (hMD)—a muscular dystrophy caused by mutations in the DMPK1 gene. The effect of IGF2 on myogenic activity was assayed in biological triplicate across a range of concentrations centered around expected physiological levels by adding each factor to hMD myoblasts for 72 hours with daily media changes (DMEM +2% horse serum) and a second pulse of factors at the first media change. After 72 or 96 hours, cells were pulsed for 2-5 hours with EdU (30 uM), ethanol fixed, stained with Hoescht 3342, immunostained for proliferation—as measured by the percent of cells staining positive for EdU (% EdU)-, and immunostained for differentiation—as measured by the increase in cellular area staining positive for embryonic myosin heavy chain (% eMyHC) relative to the negative controls, which received media and vehicle only. Wells were imaged on a Keyence BZ-100 at 4×, the images quantified in Cell Profiler, and the statistics were computed in R. Additionally, RNA was extracted from myoblast and select transcript abundances quantified by qPCR.

**Q.** With “IGF2-hFc4: Human IGF2-hFc4, SEQ ID NO: 39” as the compound, how does the “% MyHC” value (human myoblast cells) read?
**A.** The value was 6.901%.

**Q.** What does the source list for “HSA-IGF2R61A: His tagged HSA fusion IGF2 R61A mutant with a long linker, SEQ ID NO: 34”?
**A.** serum half-life compared to the natural sequence of IGF2 [1]: significantly improved serum half-life; activity relative to IGF2 at equimolar concentrations ([2]; across a range of test article concentrations): equal activity; activity relative to HSA-IGF2 at equimolar concentrations ([2]; before or after size exclusion purification via HPLC): equal or increased activity; activity relative to IGF2 at equimolar concentrations [3]: equal activity; force production (max contraction rate) [4]: increased force production; force production (specific force-frequency) [4]: increased force production; muscle fatigue (specific fatigue index) [4]: reduced muscle fatigue; muscle mass [4]: increased muscle mass; regenerative index (number of new fibers per square millimeter) [4]: increased regenerative index; relation rates [4]: improved relation rates

**Q.** Which results are given for `CCCC(=O)[O-].[Na+]` [NaBut, sodium butyrate]?
**A.** MYF5 expression fold change compared to FM (vehicle) (DM1 human myoblast): 1.128; MYOD1 expression fold change compared to FM (vehicle) (DM1 human myoblast): 1.095; MYOG expression fold change compared to FM (vehicle) (DM1 human myoblast): 1.020
